The results in this text go back to patent publication US8618289B2 (Ambit Biosciences Corporation, priority 2008, dated 2013).

Experiment [1] deals with RAF kinases (Homo sapiens, UniProt P04049). Particulars: read-out: RAF1 Kd; RAF1.
For experiment [2], the target named is RAF kinases (Homo sapiens, UniProt P15056). Particulars: read-out: BRAF WT Kd; BRAF WT.
For experiment [3], the target named is RAF kinases (Homo sapiens, UniProt P15056, V600E). The experiment is described as follows: biochemical.
Sequence of RAF kinases (Homo sapiens, UniProt P15056, V600E) (P15056 whole entry V600E): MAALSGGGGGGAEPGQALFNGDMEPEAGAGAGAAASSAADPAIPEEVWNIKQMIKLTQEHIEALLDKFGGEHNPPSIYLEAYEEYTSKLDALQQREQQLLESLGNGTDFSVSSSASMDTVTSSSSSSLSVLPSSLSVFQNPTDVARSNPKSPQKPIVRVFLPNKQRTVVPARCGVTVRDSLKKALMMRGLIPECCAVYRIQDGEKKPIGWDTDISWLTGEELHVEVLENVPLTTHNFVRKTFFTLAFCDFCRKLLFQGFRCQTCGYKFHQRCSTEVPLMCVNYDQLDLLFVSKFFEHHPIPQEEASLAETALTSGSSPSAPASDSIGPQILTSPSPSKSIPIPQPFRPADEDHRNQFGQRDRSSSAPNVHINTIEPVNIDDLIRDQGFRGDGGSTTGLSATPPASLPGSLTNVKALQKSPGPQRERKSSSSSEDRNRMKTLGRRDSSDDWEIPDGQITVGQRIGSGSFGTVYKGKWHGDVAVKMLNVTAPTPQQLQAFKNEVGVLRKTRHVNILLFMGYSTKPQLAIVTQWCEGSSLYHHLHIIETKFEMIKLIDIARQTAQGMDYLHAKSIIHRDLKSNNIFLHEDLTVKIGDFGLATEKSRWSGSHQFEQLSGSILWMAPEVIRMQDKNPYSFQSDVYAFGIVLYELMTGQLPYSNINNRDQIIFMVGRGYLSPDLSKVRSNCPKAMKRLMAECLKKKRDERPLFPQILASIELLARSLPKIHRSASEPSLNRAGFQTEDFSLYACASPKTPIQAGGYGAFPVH
A further experiment deals with A375 cells. In words: cells. Particulars: Homo sapiens, A-375, read-out: A375 Viability EC50.
Experiment [4] deals with MEK1 phosphorylation in the A375 human melanoma cell line. The experiment is described as follows: cells. Particulars: A-375, read-out: pMEK IC50.
Procedure: A375 cells (from American Type Culture Collection) were plated at 50,000 cells per well in DMEM (Mediatech) with 10% fetal bovine serum (Omega Scientific) into a 96 well plate and incubated overnight in a 37° C. incubator with 10% CO2. The cells were then washed with PBS and the medium replaced with 0.5% FBS for incubation overnight. […] The cells were incubated with compound or control for two hours at 37° C. The compound solution was aspirated off and the cells washed with cold PBS. […] The plate was centrifuged for 30 minutes to pellet out the cell debris. The cleared lysates were transferred to a 96-well Nunc plate and the ELISA protocol described by the manufacturer in Catalog #KHO0321 or KHO0291 was followed.

Usually Kd stands for the constant that tells how readily two partners part at equilibrium. The term EC50 denotes the concentration at which the effect is half-maximal. The IC50 is the concentration needed to halve the response being measured.

Sequence of RAF kinases (Homo sapiens, UniProt P15056) (P15056 whole entry): as the sequence (P15056 whole entry V600E) above, with E600V counted along it
Sequence of RAF kinases (Homo sapiens, UniProt P04049) (P04049 whole entry): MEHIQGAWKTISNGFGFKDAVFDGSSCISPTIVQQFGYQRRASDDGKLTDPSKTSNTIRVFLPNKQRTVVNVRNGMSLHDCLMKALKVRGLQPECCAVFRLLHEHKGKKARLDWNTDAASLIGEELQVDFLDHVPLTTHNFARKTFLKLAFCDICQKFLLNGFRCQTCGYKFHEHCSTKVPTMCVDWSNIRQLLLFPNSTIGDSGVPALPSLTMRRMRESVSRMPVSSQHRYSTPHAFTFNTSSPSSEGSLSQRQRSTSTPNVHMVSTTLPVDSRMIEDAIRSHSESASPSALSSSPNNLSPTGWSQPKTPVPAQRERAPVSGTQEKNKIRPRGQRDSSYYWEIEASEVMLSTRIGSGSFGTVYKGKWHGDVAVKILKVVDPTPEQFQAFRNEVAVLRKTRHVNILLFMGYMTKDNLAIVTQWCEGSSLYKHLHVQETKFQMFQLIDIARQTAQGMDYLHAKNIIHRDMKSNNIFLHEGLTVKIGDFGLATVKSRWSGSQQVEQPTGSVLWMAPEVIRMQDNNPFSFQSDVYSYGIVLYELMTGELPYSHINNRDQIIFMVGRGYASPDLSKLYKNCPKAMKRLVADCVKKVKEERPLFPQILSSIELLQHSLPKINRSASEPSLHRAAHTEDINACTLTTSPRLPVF

Turning to `COc1cc2ncnc(Oc3cc(NC(=O)Nc4cc(C(F)(F)F)nn4-c4ccccc4)c(F)cc3F)c2cc1OC` [Ex 271, 1-(5-(6,7-dimethoxyquinazolin-4-yloxy)-2,4-difluorophenyl)-3-(1-phenyl-3-(trifluoromethyl)-1H-pyrazol-5-yl)urea], the Kd on RAF kinases [1] was above 1000 nM; at RAF kinases [2], above 1000 nM; on RAF kinases [3], 250 to 500 nM. Besides, the EC50 in the experiment on A375 cells was in the range of 250 to 500 nM. For the same compound, the IC50 in experiment [4] was below 250 nM.

Take `COc1cc2ncnc(Oc3ccc(Cl)c(NC(=O)Nc4cc(C(F)(F)F)nn4-c4ccccc4)c3)c2cc1OC` [Ex 300, 1-(2-chloro-5-(6,7-dimethoxyquinazolin-4-yloxy)phenyl)-3-(1-phenyl-3-(trifluoromethyl)-1H-pyrazol-5-yl)urea]: the values for the Kd at RAF kinases [1], on RAF kinases [2] and on RAF kinases [3] were above 1000 nM, above 1000 nM and 500 to 1000 nM, respectively. Besides, the EC50 in the experiment on A375 cells was above 1000 nM. Moreover, the IC50 in experiment [4] lay in the range of 250 to 500 nM.

Consider `COCCOc1cc2ncnc(Oc3cccc(NC(=O)Nc4cc(C(F)(F)F)nn4-c4ccc(F)cc4)c3)c2cc1OC` [Ex 226, 1-[1-(4-fluorophenyl)-3-(trifluoromethyl)-1H-pyrazol-5-yl]-3-{3-[6-methoxy-7-(2-methoxyethoxy)quinazolin-4-yloxy]phenyl}urea], for which the results for the Kd on RAF kinases [1], at RAF kinases [2] and on RAF kinases [3] were above 1000 nM, above 1000 nM and 500 to 1000 nM, respectively. Also, the concentration for a half-maximal effect (EC50) in the experiment on A375 cells was above 1000 nM. Also, in experiment [4], the concentration for half-maximal inhibition (IC50) was in the range of 250 to 500 nM.

Regarding `COc1cc2ncnc(Oc3cccc(NC(=O)Nc4cc(C(C)(C)C)nn4-c4ccc(C)cc4)c3)c2cc1OC` [Ex 274, 1-(3-tert-butyl-1-p-tolyl-1H-pyrazol-5-yl)-3-(3-(6,7-dimethoxyquinazolin-4-yloxy)phenyl)urea], the Kd is above 1000 nM at RAF kinases [1], above 1000 nM on RAF kinases [2] and 250 to 500 nM on RAF kinases [3]. The IC50 in experiment [4] was below 250 nM.

With `COc1cc2ncnc(Oc3cccc(NC(=O)Nc4cc(C(C)(C)C)nn4-c4ccccc4C(F)(F)F)c3)c2cc1OC` [Ex 376, 1-(3-tert-butyl-1-(2-(trifluoromethyl)phenyl)-1H-pyrazol-5-yl)-3-(3-(6,7-dimethoxyquinazolin-4-yloxy)phenyl)urea], the results for the Kd at RAF kinases [1], at RAF kinases [2] and at RAF kinases [3] were above 1000 nM, above 1000 nM and 500 to 1000 nM, respectively. The IC50 in experiment [4] was below 250 nM.

With `COc1cc2ncnc(Sc3cccc(NC(=O)Nc4cc(C(C)(C)C)nn4-c4ccccc4F)c3)c2cc1OC` [Ex 371, 1-(3-tert-butyl-1-(2-fluorophenyl)-1H-pyrazol-5-yl)-3-(3-(6,7-dimethoxyquinazolin-4-ylthio)phenyl)urea], the results for the Kd at RAF kinases [1], on RAF kinases [2] and at RAF kinases [3] were above 1000 nM, above 1000 nM and 250 to 500 nM, respectively. Besides, the IC50 in experiment [4] was below 250 nM.

Consider `COc1cc2ncnc(Oc3ccc(F)c(NC(=O)Nc4cc(C(C)(C)C)nn4-c4ccccc4)c3)c2cc1OC` [Ex 368, 1-(3-tert-butyl-1-phenyl-1H-pyrazol-5-yl)-3-(5-(6,7-dimethoxyquinazolin-4-yloxy)-2-fluorophenyl)urea], for which the Kd at RAF kinases [1] is above 1000 nM; on RAF kinases [2] it was above 1000 nM; on RAF kinases [3], 500 to 1000 nM. For the same compound, the IC50 in experiment [4] was below 250 nM.

For the compound `COc1cc2ncnc(Oc3cc(NC(=O)Nc4cc(C(C)(C)C)nn4-c4ccc(C)cc4)c(F)cc3F)c2cc1OC` [Ex 272, 1-(3-tert-butyl-1-p-tolyl-1H-pyrazol-5-yl)-3-(5-(6,7-dimethoxyquinazolin-4-yloxy)-2,4-difluorophenyl)urea], the Kd on RAF kinases [1] was above 1000 nM; at RAF kinases [2], above 1000 nM; on RAF kinases [3], 500 to 1000 nM. In experiment [4], the IC50 was below 250 nM.

On to `COc1cc2ncnc(Sc3cccc(NC(=O)Nc4cc(C(C)(C)C)nn4-c4cccc(C)c4)c3)c2cc1OC` [Ex 286, 1-(3-tert-butyl-1-m-tolyl-1H-pyrazol-5-yl)-3-(3-(6,7-dimethoxyquinazolin-4-ylthio)phenyl)urea], for which the values for the Kd on RAF kinases [1], on RAF kinases [2] and at RAF kinases [3] were above 1000 nM, above 1000 nM and 250 to 500 nM, respectively. In experiment [4], the IC50 is below 250 nM.
